Measured values as given in US4017622A, “Piperazine derivatives” (Dainippon Pharmaceutical Co., Ltd., priority 1972, dated 1977).

How the values were obtained:
[1] = system: Pseudomonas aeruginosa Tsuchijima; assay: In vitro antibacterial activity (MIC, serial dilution), Pseudomonas aeruginosa; details: nutrient broth, pH 7.0; 37° C for 48 hours
Procedure: (§6) The minimum inhibitory concentration (MIC) was
(§7) determined by the well known serial dilution method.
(§8) Medium: nutrient broth, pH 7.0 (5 ml/tube)
(§9) Inoculum: 1 drop of 1 : 10^5 dilution of an
overnight broth culture per tube

[2] = system: Pseudomonas aeruginosa No. 12; assay: In vivo efficacy against systemic infection with Pseudomonas aeruginosa in mice; details: NO.12, 168 h, male ddY-S mice, ip, twice, about 5 minutes and 6 hours after infection, observation 7 days
Procedure: (§1) In the Tables II and III, the ED50 and LD50 values were calculated in accordance with the Bcherns-Kaerber method [Arch. Exp. Path, Pharm., 162, 480 (1931)].
(§2) 2) In vivo efficacy against systemic infection with
(§3) Pseudomonas aeruginosa and Salmonella typhimurium
*Experimental conditions:
Organism: Pseudomonas aeruginosa No. 12
Mice: male mice (ddY-S) weighing 20 g approximately.
intraperitoneal infection with 50 to 100
LD50 (about 5 × 10^3 cells/mouse) of a
bacterial suspension in 4% gastric mucin.
twice, about 5 minutes and 6 hours after
(§4) Drug: an alkaline solution (pH 8 - 9) for intraperitoneal
(§5) ip: intraperitoneal administration.

Acute toxicity in mice = details: mouse, in vivo
Procedure: as §1
3) Acute toxicity in mice
Experimental conditions:
Mice: male mice (ddY-S) weighing 20 g approximately
Drug: alkaline solution (pH 8 - 9) for intravenous
administration and suspension in 0.2%
carboxymethyl cellulose for oral administration.
iv: intravenous administration.
ip: oral administration.

[3] = system: Staphylococcus aureus Terajima; assay: In vitro antibacterial activity (MIC, serial dilution), Staphylococcus aureus; details: nutrient broth, pH 7.0; 37° C for 48 hours
Procedure: as §6, §7, §8, §9
overnight broth culture per tube

Escherichia coli K-12 = assay: In vitro antibacterial activity (MIC, serial dilution), Escherichia coli; details: nutrient broth, pH 7.0; 37° C for 48 hours
Procedure: as §6, §7, §8, §9
overnight broth culture per tube

[4] = system: Salmonella typhimurium S-9; assay: In vivo efficacy against systemic infection with Salmonella typhimurium in mice; details: Salmonella enterica, 336 h, male ddY-S mice, twice a day for 4 days, observation 14 days
Procedure: as §1, §2, §3
**Experimental conditions:
Organism: Salmonella typhimurium S-9
Ice: male mice (ddY-S) weighing 20 g approximately.
Intraperitoneal infection with 50 to 100
LD50 (about 10^5 cells/mouse) of a bacterial
suspension in a nutrient broth.
twice a day for 4 days from the day of
as §4
administration and suspension in 0.2% carboxymethyl
cellulose for oral administration.
as §5
po: oral administration.

| Structure (SMILES) | minimum inhibitory concentration (MIC), Pseudomonas aeruginosa Tsuchijima [1] | ED50 [2] | LD50 at 168 h (Acute toxicity in mice; male ddY-S mice, iv, observation 7 days) | LD50 at 168 h (Acute toxicity in mice; male ddY-S mice, po, observation 7 days) | minimum inhibitory concentration (MIC), Staphylococcus aureus Terajima [3] | minimum inhibitory concentration (MIC), Escherichia coli K-12 (Escherichia coli K-12) | ED50 ([4]; ip) | ED50 ([4]; po) | LD50 at 168 h (Acute toxicity in mice; iv) | LD50 at 168 h (Acute toxicity in mice; po) |
| --- | --- | --- | --- | --- | --- | --- | --- | --- | --- | --- |
| CCn1cc(C(=O)O)c(=O)c2cnc(N3CCCC3)nc21 [PA, 5,8-dihydro-8-ethyl-2-pyrrolidino-5-oxopyrido [2,3-d]pyrimidine-6-carboxylic acid, reference compound] | 100 | > 100 mg/kg | 268 mg/kg | > 4000 mg/kg | 10 | 1 |  |  |  |  |
| CCn1cc(C(=O)O)c(=O)c2ccc(N3CCN(C)CC3)cc21 [compound 1090] | 30 | 91.4 mg/kg |  |  | 30 | 1 | 9.6 mg/kg | 13.6 mg/kg | > 500 mg/kg | 2000 mg/kg |
| CCn1cc(C(=O)O)c(=O)c2ccc(N3CCNCC3)cc21 [compound 1091] | 10 | 6.3 mg/kg |  |  | 30 | 1 | 15.5 mg/kg | ~109 mg/kg | > 500 mg/kg | 2000 mg/kg |
| CN1CCN(c2ccc3c(=O)c(C(=O)O)cn(Cc4ccccc4)c3c2)CC1 [compound 1147] | 10 |  |  |  | > 100 | 1 |  |  |  |  |
| O=C(O)c1cn(Cc2ccccc2)c2cc(N3CCNCC3)ccc2c1=O [compound 1162] | 10 |  |  |  | 30 | 1 |  |  |  |  |
| CCn1cc(C(=O)O)c(=O)c2ccc(N3CCNCC3)nc21 [compound 1214] | 10 | 9.2 mg/kg |  |  | 30 | 3 | 18.7 mg/kg | ~43.8 mg/kg | > 500 mg/kg |  |
| CCn1cc(C(=O)O)c(=O)c2ccc(N3CCN(C)CC3)nc21 [compound 1225] | 30 |  |  |  | 100 | 1 |  |  |  |  |
| CCn1cc(C(=O)O)c(=O)c2ccc(N(C)C)nc21 [compound 1249] | > 100 | > 100 mg/kg |  |  | 100 | 1 |  |  |  |  |
| C=Cn1cc(C(=O)O)c(=O)c2ccc(N3CCN(C)CC3)nc21 [compound 1276] | 10 |  |  |  | > 100 | 1 |  |  |  |  |
| CCn1cc(C(=O)O)c(=O)c2cnc(N3CCN(C)CC3)cc21 [compound 1317] | 100 | 50 mg/kg |  |  | 30 | 3 | 14.9 mg/kg | 23.9 mg/kg | > 500 mg/kg |  |
| CCn1cc(C(=O)O)c(=O)c2cnc(N3CCNCC3)cc21 [compound 1367] | 30 | ~12.5 mg/kg |  |  | > 100 | 3 | 54.5 mg/kg | 70.7 mg/kg |  |  |
| C=Cn1cc(C(=O)O)c(=O)c2ccc(N3CCNCC3)nc21 [compound 1424] | 10 | 3.9 mg/kg |  |  | 100 | 1 | 19.3 mg/kg | 22.9 mg/kg | 354 mg/kg | > 2000 mg/kg |
| C=Cn1cc(C(=O)O)c(=O)c2ccc(N3CCN(C)CC3)cc21 [compound 1493] | 3 | 17.8 mg/kg |  |  | 100 | 1 | 3.4 mg/kg | 8.8 mg/kg | > 500 mg/kg | > 2000 mg/kg |
| C=Cn1cc(C(=O)O)c(=O)c2ccc(N3CCN(CC)CC3)cc21 [compound 1557] | 10 | 19.3 mg/kg |  |  | 30 | 1 | 5.1 mg/kg | 11.5 mg/kg | 354 mg/kg | > 2000 mg/kg |
